Test results from ChEMBL document CHEMBL3097995, “NAD-based inhibitors with anticancer potential” (Bioorg Med Chem Lett, 2014).

How the values were obtained:
[1] = biological target: Inosine-5'-monophosphate dehydrogenase 1 (Homo sapiens, UniProt P20839); test: Inhibition of IMPDH1 (unknown origin)
Homo sapiens = species on record: Homo sapiens; test: Selectivity ratio of Ki for IMPDH2 (unknown origin) to Ki for IMPDH1 (unknown origin)
[2] = biological target: Inosine-5'-monophosphate dehydrogenase 2 (Homo sapiens, UniProt P12268); test: Inhibition of IMPDH2 (unknown origin)
HeLa = test: Antiproliferative activity against human HeLa cells; format: functional, cell-based
K562 = test: Antiproliferative activity against human K562 cells; format: functional, cell-based
HT-29 = test: Antiproliferative activity against human HT-29 cells; format: functional, cell-based
[3] = Binding affinity to human IMPDH
PC-3 = test: Antiproliferative activity against human PC3 cells; format: functional, cell-based
DU-145 = test: Antiproliferative activity against human DU145 cells; format: functional, cell-based
HL-60 = test: Antiproliferative activity against human HL60 cells; format: functional, cell-based
[4] = Drug degradation in human plasma after 24 hrs; format: ADME, cell-free; details: read-out: Drug degradation

Sequence of Inosine-5'-monophosphate dehydrogenase 1 (P20839 whole entry): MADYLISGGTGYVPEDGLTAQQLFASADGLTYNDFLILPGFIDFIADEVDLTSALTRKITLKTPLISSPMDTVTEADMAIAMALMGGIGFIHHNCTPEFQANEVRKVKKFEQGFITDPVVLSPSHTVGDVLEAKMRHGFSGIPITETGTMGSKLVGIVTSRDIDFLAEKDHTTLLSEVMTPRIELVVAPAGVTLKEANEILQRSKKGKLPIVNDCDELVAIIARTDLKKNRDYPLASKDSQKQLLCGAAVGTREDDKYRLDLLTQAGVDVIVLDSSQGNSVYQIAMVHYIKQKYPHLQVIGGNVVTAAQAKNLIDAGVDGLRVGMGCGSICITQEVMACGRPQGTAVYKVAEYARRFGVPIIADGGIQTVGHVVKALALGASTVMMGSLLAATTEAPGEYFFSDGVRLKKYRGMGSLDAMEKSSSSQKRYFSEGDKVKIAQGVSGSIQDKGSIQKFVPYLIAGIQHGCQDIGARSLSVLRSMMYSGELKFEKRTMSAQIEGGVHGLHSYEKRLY

Compound: COc1c(C)c2c(c(O)c1CCOP(=O)(O)CP(=O)(O)OC[C@H]1O[C@@H](n3cnc4c(N)nc(-c5ccncc5)nc43)[C@H](O)[C@@H]1O)C(=O)OC2
- Ki [1]: 0.6 nM
- Ratio Ki (Homo sapiens): 23
- Ki [2]: 14 nM
- IC50 (HeLa): 1000 nM
- IC50 (K562): 400 nM
- IC50 (HT-29): 2000 nM

Compound: COc1c(C)c2c(c(O)c1C/C=C(\C)CCC(=O)O)C(=O)OC2 [MYCOPHENOLIC ACID]
- Ki [3]: 10 nM

Compound: COc1c(C)c2c(c(O)c1C/C=C(\C)CCC(=O)OC[C@H]1O[C@@H](n3cnc4c(N)ncnc43)[C@H](O)[C@@H]1O)C(=O)OC2
- IC50 (PC-3): 20000 nM
- IC50 (DU-145): 5800 nM
- IC50 (HL-60): 9300 nM
- Ki [1]: 163 nM
- metabolised at 24 h [4]: 20%
- Ki [2]: 102 nM
- IC50 (K562): 500 nM
